Publication PMC7324608 (Scientific Reports, 2020)
Like-named read-outs stand apart in the source and are kept apart here.

What was measured:
HpHtrA [1] = target: T1, HpHtrA (Helicobacter pylori, UniProt G2J5T2); assay: FRET peptide assay of HpHtrA activity; format: biochemical; settings: 5 µM FRET peptide, 250 nM HpHtrA, 37 °C, 50 mM HEPES pH 7.4, read-out: IC50 of HpHtrA inhibition
T1 construct: (HpHtrA, G18-K475, UniProt G2J5T2); GST (N, cleaved yes); made in house; host or cells: E. coli BL21
T1 sequence (G2J5T2 18-475): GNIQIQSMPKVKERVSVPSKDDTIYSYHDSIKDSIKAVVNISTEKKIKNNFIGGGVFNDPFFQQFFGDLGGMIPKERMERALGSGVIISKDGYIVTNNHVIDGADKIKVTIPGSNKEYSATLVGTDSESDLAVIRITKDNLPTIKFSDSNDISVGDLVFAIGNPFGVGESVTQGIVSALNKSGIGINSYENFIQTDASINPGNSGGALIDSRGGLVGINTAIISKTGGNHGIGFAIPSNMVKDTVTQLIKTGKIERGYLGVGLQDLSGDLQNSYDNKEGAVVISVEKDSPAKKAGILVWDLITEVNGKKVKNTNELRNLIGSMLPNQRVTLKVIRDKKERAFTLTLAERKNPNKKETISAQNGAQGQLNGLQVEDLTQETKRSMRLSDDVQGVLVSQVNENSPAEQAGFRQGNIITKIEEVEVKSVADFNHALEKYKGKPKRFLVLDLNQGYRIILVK
Excerpt: For the establishment of a FRET-based assay for the quantification of the HpHtrA activity, the 2-Abz/3-nitrotyrosine FRET pair[53]–[55] was introduced into the sequence AQRVAF: the fluorophore (2-Abz, Ex/Em 320/435 nm) was coupled at the N-terminus, whereas the quencher (3-nitrotyrosine, Ex 425 nm[56]) was positioned at the C-end. The FRET activity of this peptide was first confirmed by measuring the fluorescence emission in the range 400–450 nm before and after the trypsin-mediated cleavage of the peptide bond R_V (Fig. S3). The measurements were performed in a black, flat-bottom 96-well plate (Nunc, Thermo Scientific, Schwerte, Germany) at 37 °C. 5 µM of the peptide were incubated with 250 nM HpHtrA and 125 nM trypsin in 50 mM HEPES buffer (pH 7.4). […] Cleavage of the peptide leads to increasing fluorescence, which was measured in a plate reader (Infinite 200 PRO, TECAN, Groedig, Austria) with a filter setting of 320 nm/425 nm (Ex/Em). Statistical analysis was performed with GraphPad Prism software (Vers. 8.0.2). […] Three independent experiments containing three technical replicates were analyzed for every sample. Significance is indicated as non-significant (ns) for p > 0.05, * for p < 0.05, ** for p < 0.01, *** for p < 0.001, and **** for p < 0.0001.

HpHtrA wt = target: T2, HpHtrA wt (Helicobacter pylori, UniProt G2J5T2); assay: HpHtrA oligomerization, non-reducing SDS-PAGE; design: (HpHtrA, G18-K475, UniProt G2J5T2); GST (N, cleaved yes); made in house; host or cells: E. coli BL21
T2 sequence (G2J5T2 18-475): T1 sequence (G2J5T2 18-475)
Protocol: Non-reducing sample buffer without β-mercaptoethanol was added and the samples were separated by SDS-PAGE containing 0.1% casein (Carl Roth, Karlsruhe, Germany) as a substrate. The gel was incubated for 60 min in renaturing buffer (2.5% Triton X-100) and equilibrated for 30 min in developing buffer (50 mM Tris–HCl, pH 7.4, 200 mM NaCl, 5 mM CaCl2, and 0.02% Brij-35) at room temperature under gentle agitation. Afterwards, the gel was incubated for 24 h at 37 °C in developing buffer under gentle agitation. To visualize caseinolytic activity, the gel was stained in 0.5% Coomassie Brilliant Blue R250 (Carl Roth, Karlsruhe, Germany). For detection of multimers by SDS-PAGE, HpHtrA was separated by SDS-PAGE under non-reducing conditions. Proteins were visualized by staining with Coomassie Brilliant Blue G250. Independent experiments were repeated at least four times.

HpHtrA [2] = target: T1, HpHtrA; assay: in vitro casein cleavage by HpHtrA (Coomassie SDS-PAGE); format: biochemical; settings: 10 µg casein, 250 ng HpHtrA, 16 h, 37 °C; for effect on HtrA-mediated casein degradation: 1 mM
Excerpt: (§1) The proteins were separated by SDS-PAGE and visualized by staining with Coomassie Brilliant Blue G250 (Lactan, Vienna, Austria). […] Proteins were separated using SDS-PAGE and blotted onto a nitrocellulose membrane. Human Cdh1 was detected by an antibody recognizing the EC5 domain of hCdh1 (Abcam, Cambridge, UK) and a polyclonal serum was used to detect HpHtrA[22]. Independent experiments were repeated at least three times.

BbHtrA = tested on: BbHtrA; design: method as in PMID 26480895; settings: cited from earlier work
HpHtrA [3] = target: T1, HpHtrA; assay: in vitro E-cadherin (hCdh1) cleavage by HpHtrA (Western blot); format: biochemical; settings: 50 ng hCdh1, 250 ng HpHtrA, 16 h, 37 °C; for effect on HpHtrA-mediated hCdh1 cleavage/fragmentation: 1 mM
Excerpt: as §1

| SMILES | IC50 (HpHtrA [1]; after 15 min) | IC50 (HpHtrA [1]; after 180 min) | concentration sufficient to enhance oligomerization or the stability of HpHtrA (HpHtrA wt; Coomassie-stained gel, non-reducing conditions) | concentration giving a slight inhibitory effect on casein cleavage (HpHtrA [2]) | IC100 (HpHtrA [2]; read-out: concentration required to fully inhibit casein cleavage) | effect on HtrA-mediated casein degradation (HpHtrA [2]) | effect on casein degradation by BbHtrA (BbHtrA) | concentration that clearly inhibited HpHtrA-mediated hCdh1 fragmentation (HpHtrA [3]) | effect on HpHtrA-mediated hCdh1 cleavage/fragmentation (HpHtrA [3]) | stabilization of HpHtrA wt oligomers (HpHtrA wt; low concentrations, Coomassie-stained SDS-PAGE, non-reducing) |
| --- | --- | --- | --- | --- | --- | --- | --- | --- | --- | --- |
| [Zn+2] [Zn^++, ZnCl2] | 650 nM | 2570 nM | 50 µM | 250 µM | 500 to 1000 µM | strongly inhibited | similarly inhibited | 50 µM | strongly decreased | – |
| [Cu+2] [Cu^++, CuCl2] | 295 nM | 937 nM | – | 250 µM | – | strongly inhibited | similarly inhibited | – | strongly decreased | only slightly stabilized |
